According to patent US6184246A, “Inhibition of cytokine production by polymethoxylated flavones” (priority 1999, dated 2001):
“Also recorded” adds a separate entry of the source. Where two headings read alike, the source gives them in different places.

Columns and labels:
TNFα [1] = assay: TNFα production by LPS-stimulated human monocytes (ELISA); format: cell-based; settings: for IC50: read-out: IC50 for inhibition of TNFα production; for inhibition of TNFα production (in words): LPS-stimulated human monocytes
Description: Isolation of human peripheral blood monocytes: Peripheral blood mononuclear cells (PBMCs) were isolated from residual source leukocytes (Bonfils Blood Center, CO) by density gradient centrifugation using Ficoll-Paque Plus (Pharmacia, Sweden).
(§1) To measure the impact of the flavones on cytokine production, PBMCs were resuspended to 4×10^6 /mL in complete medium, i.e., Dulbecco's Modified Eagle Medium containing 30% FCS, 2 mM glutamine, 100 U/mL Penicillin-G, and 100 μg/mL streptomycin. […] Nonadherent cells (lymphocytes) were separated from the plastic adherent cells (monocytes) by washing the wells twice with 200 μL of medium. The monocytes were cultured an additional 30 min in 100 μL of complete medium containing graded concentrations of the compound of interest and the cultures were then adjusted to contain […] LPS to stimulate cytokine production. Culture supernatants were harvested 14 h later, and cells were lysed by addition of 50 μL of Dulbecco's phosphate buffered saline containing 1% NP40. Culture supernatants were evaluated for TNFα, IL-1β, IL-6, IL-8, IL-10, and MIP-1α content using specific enzyme-linked immunosorbent assays (ELISA) purchased from R&D Systems. IL-1β was measured in cell lysates by ELISA. Lactate dehydrogenase (LDH) content of cell lysates was measured to determine compound effects on cell viability: To 50 μL of lysate were added 200 μL of 50 mM sodium pyrophosphate buffer (pH 8.9) containing 50 mM lactic acid and 4 mg/mL β-nicotinamide adenine dinucleotide (Sigma); rates of reduction of nicotinamide adenine dinucleotide were measured at room temperature at 340 nm.

human monocytes = assay: Cytotoxicity by LDH content of monocyte lysates
Description: as §1

intracellular cAMP = assay: Cellular cAMP in human monocytes (EIA); format: cell-based; settings: 30 min; for intracellular cAMP level: media alone 2.7±0.9
Description: To test flavones for the ability to cause an increase in cellular cAMP, monocytes were purified from PBMC by centrifugal elutriation. Monocytes were resuspended to 5×10^6 /mL in complete medium and 2 mL cell suspension were dispensed into FALCON 17×100 mm polypropylene culture tubes (Becton Dickinson). The cells were precultured 2 h at 37° C. and 5% CO2, and then cultured an additional 30 min following adjusting culture media to contain 100 μM of the flavone of interest or 200 μM IBMX (3-isobutyl-1-methylxanthine). Cells were then collected by centrifugation, lysed in 300 μL of ice cold aqueous solution containing 10 mM HEPES (pH 7.6) and 1% NP40. The lysates were applied to 100 mg columns of Amprep SAX resin (Amersham). The columns were then rinsed with 1 mL of methanol and the cAMP was eluted in 600 μL of methanol containing 0.01 M HCl. The eluates were chilled on dry ice and dried under vacuum. The Amersham Biotrak cAMP EIA assay was used to measure cAMP content of residues resuspended in 400 μL of assay buffer.

[2] = tested on: type-IV phosphodiesterase semi-purified from U937 cells; assay: Phosphodiesterase cAMP SPA enzyme assay; format: biochemical; settings: hydrolysis of cAMP; read-out: concentration inhibiting phosphodiesterase activity 50%
Description: PDE semipurified from U937 monocytic cells was evaluated for the ability to catalyze the hydrolysis of cAMP in the presence of graded concentrations of flavone, myricetin, and HMF as described below. The rates are plotted as percent of control-reactions, where no flavonoids were present. Testing flavones as phosphodiesterase inhibitors and inducers of cellular cyclic adenosine monophosphate (cAMP): The Phosphodiesterase cAMP SPA Enzyme Assay (Amersham, Arlington Heights, Ill.) was used to test the ability of flavones to inhibit cAMP hydrolysis catalyzed by phosphodiesterase. The phosphodiesterase used in this study was semi-purified from U937 cells, and was determined to be mostly the type-IV isoform based on sensitivity to selected isoform inhibitors (Trophy, T. J., J. Pharmacol. Experimental Therapeutics, 1195-1205 (1992)).

TNFα [3] = settings: mice, cited from earlier work
IL-1β = IL-1β production by LPS-stimulated human monocytes (ELISA, cell lysates); format: cell-based; settings: cytokine suppression profile, HMF compared against IBMX (Table 2)
Description: (§2) Adherent purified human monocytes were cultured in the presence of graded concentrations of heptamethoxyflavone for 30 min. The monocyte cultures were then adjusted to contain 20 ng/mL LPS. After 14 h of culture, the cytokines TNFα, IL-6, IL-8, MIP-1α, and IL-10 were assayed in the culture supernatants and IL-1β was assayed in the cell lysates using specific ELISA assays as described below. Values expressed as the percent of cytokine produced in flavone-free cultures are the means and standard errors determined using monocytes isolated from three independent donors.
(§3) Isolation of human peripheral blood monocytes: Peripheral blood mononuclear cells (PBMCs) were isolated from residual source leukocytes (Bonfils Blood Center, CO) by density gradient centrifugation using Ficoll-Paque Plus (Pharmacia, Sweden). Monocytes were purified further by plastic adherence (see below) or by centrifugal elutriation as described previously (Manthey, C. L., et al., J. Leuk Biol., 64: 409-416 (1998)).
(§4) IL-1β was measured in cell lysates by ELISA.

IL-10 = IL-10 production by LPS-stimulated human monocytes (ELISA); format: cell-based; settings: LPS-stimulated human monocytes
Description: as §2, §3, §4

IL-8 = IL-8 production by LPS-stimulated human monocytes (ELISA); format: cell-based; settings: cytokine suppression profile, HMF compared against IBMX (Table 2)
Description: as §2, §3, §4

IL-6 = IL-6 production by LPS-stimulated human monocytes (ELISA); format: cell-based; settings: cytokine suppression profile, HMF compared against IBMX (Table 2)
Description: as §2, §3, §4

[4] = human monocytes, 30 min preculture with compound, LPS, 14 h, 30% FCS
[5] = human monocytes, LDH content of cell lysates
[6] = Monocyte, human monocytes, 30 min preculture with compound, LPS, 14 h, 30% FCS

Row | Molecule | cytotoxicity towards cultured human monocytes (depletion of cellular LDH activity) (human monocytes) | inhibition of TNFα production (in words) (TNFα [1]) | cytotoxicity towards cultured human monocytes (depletion of cellular LDH activity) (human monocytes; [5]) | other results
1 | COc1ccc([C@@H]2CC(=O)c3c(O)cc(O[C@@H]4O[C@H](CO[C@@H]5O[C@@H](C)[C@H](O)[C@@H](O)[C@H]5O)[C@@H](O)[C@H](O)[C@H]4O)cc3O2)cc1O [hesperidin] | no cytotoxicity |  |  | IC50 (TNFα [1]; Homo sapiens, Monocyte): > 200 µM
2 | isomargaretin | no cytotoxicity |  |  | IC50 (TNFα [1]; [4]): > 200 µM
3 | Oc1cc(O)c2c(c1)OC(c1ccc(O)c(O)c1)C(O)C2 (centres unmarked) [catechin] |  | lacked activity | lacked activity and any associated cytotoxicity | 
4 | O=c1cc(-c2ccc(O)cc2)oc2ccc(O)c(O)c12 [4,5,6-trihydroxyflavone] | lacked activity and any associated cytotoxicity | lacked activity |  | 
5 | COc1ccc(-c2cc(=O)c3c(O)cc(O[C@@H]4O[C@H](CO[C@@H]5O[C@@H](C)[C@H](O)[C@@H](O)[C@H]5O)[C@@H](O)[C@H](O)[C@H]4O)cc3o2)cc1O [diosmin] |  |  | no cytotoxicity | IC50 (TNFα [1]; [6]): > 200 µM
6 | O=c1cc(-c2ccc(O)cc2)oc2cc(O)c([C@@H]3O[C@H](CO)[C@@H](O)[C@H](O)[C@H]3O)c(O)c12 [isovitexin] | no cytotoxicity |  |  | IC50 (TNFα [1]; [6]): > 200 µM
7 | Oc1cc(O)c2c(c1)O[C@H](c1ccc(O)c(O)c1)[C@H](O)C2 [epicatechin] | lacked activity and any associated cytotoxicity | lacked activity |  | 
8 | O=c1cc(-c2ccccc2)oc2ccccc12 [flavone] |  | much less active |  | increase of monocyte cAMP levels over media alone (in words) (intracellular cAMP; 100 μM): much less; intracellular cAMP level (intracellular cAMP; 100 μM): 3.6±1.1 pmol/10^7 cells; IC50 [2]: 11 µM
9 | COc1ccc(-c2cc(=O)c3c(OC)c(OC)c(OC)cc3o2)cc1 [tetra-O-methylscutellarein] |  |  | exception | 
10 | C[C@@H]1O[C@@H](O[C@H]2[C@H](Oc3cc(O)c4c(c3)O[C@H](c3ccc(O)cc3)CC4=O)O[C@H](CO)[C@@H](O)[C@@H]2O)[C@H](O)[C@H](O)[C@H]1O [naringin] | no cytotoxicity |  |  | IC50 (TNFα [1]; [6]): > 200 µM; liver injury (TNFα [3]; lipopolysaccharide-induced): suppress; lipopolysaccharide-induced TNFα release (TNFα [3]): suppress
11 | COc1ccc([C@@H]2CC(=O)c3c(O)cc(O)cc3O2)cc1O [hesperetin] | lacked activity and any associated cytotoxicity | lacked activity |  | 
12 | CC(C)Cn1c(=O)n(C)c(=O)c2[nH]cnc21 [IBMX, 3-isobutyl-1-methylxanthine] |  |  |  | increase of monocyte cAMP levels over media alone (in words) (intracellular cAMP; 200 μM): at least a doubling; intracellular cAMP level (intracellular cAMP; 200 μM): 8.3±1.9 pmol/10^7 cells; suppression of IL-1β production (IL-1β): neither suppressed; inhibition of IL-10 production (in words) (IL-10): did not inhibit; suppression of IL-8 production (IL-8): neither suppressed; suppression of IL-6 production (IL-6): neither suppressed
13 | O=C1CC(c2ccccc2)Oc2ccccc21 (centres unmarked) [flavanone] |  | lacked activity | lacked activity and any associated cytotoxicity | 
14 | O=C1C[C@@H](c2ccc(O)c(O)c2)Oc2cc(O)cc(O)c21 [eriodictyol] | lacked activity and any associated cytotoxicity | lacked activity |  | 
15 | margaretin | no cytotoxicity |  |  | IC50 (TNFα [1]; [4]): > 200 µM
16 | O=c1cc(-c2ccccc2)oc2cc(O)cc(O)c12 [chrysin] |  | lacked activity | lacked activity and any associated cytotoxicity | 
17 | O=c1c(O)c(-c2ccc(O)c(O)c2)oc2cc(O)ccc12 [fisetin] |  | lacked activity | lacked activity and any associated cytotoxicity | 
18 | CC1OC(OCC2OC(Oc3c(-c4ccc(O)cc4)oc4cc(OC5OC(C)C(O)C(O)C5O)cc(O)c4c3=O)C(O)C(O)C2O)C(O)C(O)C1O (centres unmarked) [robinin] |  | lacked activity | lacked activity and any associated cytotoxicity | 
19 | O=c1c(O)c(-c2ccccc2)oc2ccccc12 [3-hydroxyflavone] | lacked activity and any associated cytotoxicity | lacked activity |  | 
20 | C[C@@H]1O[C@@H](OC[C@H]2O[C@@H](Oc3cc(O)c4c(c3)O[C@H](c3ccc(O)cc3)CC4=O)[C@H](O)[C@@H](O)[C@@H]2O)[C@H](O)[C@H](O)[C@H]1O [narirutin] | no cytotoxicity |  |  | IC50 (TNFα [1]; [6]): > 200 µM
21 | O=c1c(O)c(-c2ccc(O)cc2)oc2cc(O)ccc12 [3,4,7-trihydroxyflavone] | lacked activity and any associated cytotoxicity | lacked activity |  | 
22 | O=c1cc(-c2ccccc2)oc2cc(O)c(O)c(O)c12 [baicalein] | lacked activity and any associated cytotoxicity | lacked activity |  | 
23 | O=c1cc(-c2ccccc2)oc2cc(O)ccc12 [7-hydroxyflavone] |  | lacked activity | lacked activity and any associated cytotoxicity | 
24 | O=c1c(O)c(-c2ccccc2)oc2cc(O)cc(O)c12 [galagin] |  | lacked activity | lacked activity and any associated cytotoxicity | 
25 | O=c1c(O)c(-c2cc(O)c(O)c(O)c2)oc2cc(O)cc(O)c12 [myricetin] |  | lacked activity; also recorded: much less active | lacked activity and any associated cytotoxicity | increase of monocyte cAMP levels over media alone (in words) (intracellular cAMP; 100 μM): much less; intracellular cAMP level (intracellular cAMP; 100 μM): 3.7±1.0 pmol/10^7 cells; IC50 [2]: 16 µM
26 | O=c1c(O)c(-c2ccc(O)c(O)c2)oc2c(O)c(O)cc(O)c12 [gossypetin] |  | lacked activity | lacked activity and any associated cytotoxicity | 
